Results from patent US20250270205A1, “COMPOSITIONS AND METHODS FOR INHIBITING TREM-1” (AUGUSTA UNIVERSITY RESEARCH INSTITUTE, INC., priority 2020, published 2025).
pIC50: −log10 of the molar value.

What was measured:
TREM-1 [1] = target: T1, TREM-1 (Homo sapiens, UniProt Q9NP99); experiment: TREM-1 reporter cell line blocking study (GFP expression by flow cytometry); assay type: cell-based; set-up: expressed in transfected cells; host or cells: TREM-1 reporter cell line (GFP read-out); conditions: for binding and activation of TREM-1 receptor on reporter cells (GFP expression): TREM-1-positive reporter cells, flow cytometry; for inhibitory effect on agonist-activated TREM-1-specific cells: preincubated with compound 4 hrs, then agonist antibody AF1278 for 24 hrs
Experimental: FIG. 2A is a diagram showing that the engagement of human TREM-1 receptor activates a reporter cell line. […] FIG. 2C is a line graph of the flow cytometry data of FIG. 2B.
(§1) For blocking studies, TREM-1-positive cells were preincubated with each tested compounds for 4 hrs followed by stimulation with agonist antibody AF1278 for an additional 24 hrs (FIGS. 2A-2B).

neutrophils = experiment: Assessment of cytotoxicity: number of neutrophils in TREM-1 agonist Ab-stimulated PBMCs; conditions: human PBMCs, compound at 50 μM 2 hrs pretreatment, TREM-1 agonist Ab 24 hrs
Experimental: Peripheral blood mononuclear cells (PBMCs) were isolated from healthy volunteers and were stimulated with TREM-1 agonist Ab for 24 hrs, at concentration of 4 μg/ml (red) or pretreated with indicated compounds (at 50 μM) for 2 hrs and stimulated with agonist AB at concentration of 4 pg/mlfor 24 hrs (blue)

reporter cells = experiment: Cytotoxicity on TREM-1 reporter cells; assay type: cell-based; conditions: compared to Compound 118818
Experimental: as §1

[2] = test system: Wild-type mice (Trem1+/+) with CCl4 injury; experiment: CCl4 liver injury, inflammatory cell infiltration at early stages of liver fibrosis; assay type: in vivo; conditions: 25 mg/kg oral
Experimental: Wild-type mice (Trem1^+/+) were orally administered VJDT (25 mg/kg) 5 consecutive days prior to injury with CCl4 (2 ml/kg, diluted 1:4 in corn oil) (24 hrs) or one dosage of control corn oil (Sigma-Aldrich, St. Louis, MO, USA). Liver cells were isolated 24 hrs after CCl4 injury, perfused with calcium and magnesium-free 40° C. prewarmed HBSS solution (Corning Life Sciences, Corning, NY, USA) and digested with collagenase type I. The cell suspension was filtered through a 70 μm cell strainer and then centrifuged at 50 g for 5 min at 4° C. to eliminate hepatocytes. Cells remaining in the supernatant were layered on HISTOPAQUE®-1083 and centrifuged at 1000 g for 15 min at 4° C. without a break. The non-parenchymal cell fraction was washed once with PBS at 300 g for 10 min at 4° C., followed by flow cytometry.
Nonparenchymal cells isolated from Trem1^+/+ livers with CCl4 injury receiving VJDT treatment were analyzed by flow cytometry to evaluate the infiltration of myeloid cells. Liver-associated cells were classified into 3 populations: F4/80^+CD11b^− resident Kupffer cells, F4/80^+CD11b^+Ly6C^hiLy6G^lo monocyte-derived macrophages and F4/80^+CD11b^+Ly6C^loLy6G^hi inflammatory neutrophils.

[3] = test system: B16F10 murine melanoma cell; experiment: Wound healing assay (cell migration); assay type: cell-based; conditions: 50 μM, 24 hrs
Experimental: (§2) B16F10 cells were cultured in 6 well plates incubated with either vehicle alone or vehicle with VJDT at 50 μM and streaks were made using a tip when cells were at 80% confluency. Streaks were photographed at 0 hrs or 24 hrs at 100×. B16F10 cells were treated with VJDT at 50 μM concentration followed by 10 μM CFSE labeling according to manufacturer's protocol. After 48 hrs cells were analyzed by flow cytometry for CFSE intensity that will be inversely proportional to cell proliferation. Further, cell cycle assay via propidium iodide on B16F10 cells with or without VIDT treatment was performed for investigating the anti-proliferative effect of VJDT in tumor cells

B16F10 cells [4] = experiment: CFSE cell proliferation assay; assay type: cell-based, murine; conditions: 50 μM, 48 hrs; listed as VIDT
Experimental: as §2

B16F10 cells [5] = experiment: Cell cycle assay via propidium iodide; assay type: cell-based, murine; conditions: B16F10 cells with or without treatment
Experimental: as §2

[6] = test system: human hepatocellular carcinoma cells (HepG2); experiment: Cell proliferation, Cell Counting Kit-8 (CCK-8); assay type: cell-based; conditions: HepG2, 72 hrs treatment, n=6, read-out: IC50 to inhibit cell proliferation
Experimental: Cell proliferation was measured using Cell Counting Kit-8 (CCK-8, GLPBIO, Montclair, CA. Catalog No. GK10001) according to the manufacturer's instructions. HepG2 cells were seeded in a 96-well plate at 3×10^3 cells/well and incubated at 37° C. in complete medium for 24 hrs before being treated with the indicated concentrations of VIDT for 72 hrs. After treatment, cells were incubated with 10 μl CCK8 at 37° C. for 2 hrs. Absorbance at 450 nm was determined using a microplate reader. The IC50 value was calculated on the nonlinear regression fit method by the GraphPad Prism software.

TREM-1 [7] = target: T1, TREM-1; experiment: TREM-1-mediated proinflammatory cytokine production by activated human neutrophils (flow cytometry); assay type: cell-based; set-up: endogenous in cells; host or cells: PBMCs from healthy human volunteers, gated on CD15/CD16 neutrophils; conditions: IL-8, IL-6, IL-12 intracellular staining, vs MH and NCI 118818
Experimental: Quantification (percentage) of cytokine-positive neutrophils from untreated, Morin Hydrate (MH)-treated, 118818-treated, and VJDT 8293-treated compounds (from triplicates) was performed. Cells isolated from the same healthy volunteer have been used for indicated experiments.
PBMCs were stained cell surface markers CD15 and CD16. In addition, intracellular staining for proinflammatory cytokines, such as IL-8, IL-6 and IL-12, was performed. PBMCs were gated on CD15, CD16 markers to identify the population of neutrophils.

T1 sequence (Q9NP99 21-234): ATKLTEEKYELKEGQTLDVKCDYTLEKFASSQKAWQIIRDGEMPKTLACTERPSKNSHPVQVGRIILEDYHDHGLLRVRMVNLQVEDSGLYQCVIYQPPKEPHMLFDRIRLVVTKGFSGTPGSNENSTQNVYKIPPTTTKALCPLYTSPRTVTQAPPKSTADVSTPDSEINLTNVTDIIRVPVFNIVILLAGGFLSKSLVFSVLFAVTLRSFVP

O=C(O)Cc1ccc(N=Nc2c(O)c(C(=O)O)cc3ccccc23)cc1 [compound 156563]
binding and activation of TREM-1 receptor on reporter cells (GFP expression) (TREM-1 [1]): significant enhancement of GFP expression
inhibitory effect on agonist-activated TREM-1-specific cells (TREM-1 [1]): did not provide any inhibitory effect

O=c1c(O)c(-c2ccc(O)cc2O)oc2cc(O)cc(O)c12 [Morin Hydrate, 2′,3,4′,5,7-pentahydroxyflavone]
number of neutrophils (indicating level of cytotoxicity) (neutrophils): 24.3%

Cc1c(O)ccc2c(O)c(NC(=O)c3ccc4c(c3)CCC(C)(C)O4)c(=O)oc12 [compound 5157]
binding and activation of TREM-1 receptor on reporter cells (GFP expression) (TREM-1 [1]): significant enhancement of GFP expression
inhibitory effect on agonist-activated TREM-1-specific cells (TREM-1 [1]): did not provide any inhibitory effect

Cc1ccc(NC(=O)Nc2nc3ccccc3s2)cc1NC(=O)Nc1nc2ccccc2s1 [Compound 319990]
cytotoxicity effect on reporter cells (reporter cells): higher cytotoxicity effect
binding and activation of TREM-1 receptor on reporter cells (GFP expression) (TREM-1 [1]): significant enhancement of GFP expression

N#CC1=CC2C(=O)N(Cc3ccccc3)C1C1C(=O)N(c3ccccc3)C(=O)C21 [VJDT 8293, (3aR,7aR)-9-benzyl-1,3,8-trioxo-2-phenyl-2,3,3a,4,7,7a-hexahydro-1H-4,7-(epiminomethano) isoindole-5-carbonitrile]
infiltration of monocyte-derived macrophages in liver ([2]; 5 consecutive days prior to CCl4 (2 ml/kg), 24 hrs after injury, p<0.001): 3-6%
infiltration of inflammatory neutrophils in liver ([2]; 5 consecutive days prior to CCl4 (2 ml/kg), 24 hrs after injury, p<0.01): 8-10%
protective effect to liver injury ([2]; CCl4 injury): strong protective effect
cytokine secretion in neutrophils ([2]; compared to control group (DMSO vehicle)): significantly decreased cytokine secretion
cell migration in wound healing assay [3]: significantly inhibits
cell migration in wound healing assay ([3]; listed as VIDT): significantly inhibited
cell proliferation (CFSE intensity) (B16F10 cells [4]): significantly inhibites
cell cycle arrest (B16F10 cells [5]): significant cell cycle arrest in the S and G2 phases
pIC50 [6]: 4.83
inhibitory effect on TREM-1 mediated proinflammatory cytokine production (TREM-1 [7]): much stronger inhibitory effect

N#CC1=CC2CN(Cc3ccccc3)C1C1C(=O)N(c3ccccc3)C(=O)C21 (stereo not shown) [Compound 118818, 9-Benzyl-1,3-dioxo-2-phenyl-2,3,3a,4,7,7a-hexahydro-1H-4,7-(epiminomethano) isoindole-5-carbonitrile]
binding and activation of TREM-1 receptor on reporter cells (GFP expression) (TREM-1 [1]): significant enhancement of GFP expression
number of neutrophils (indicating level of cytotoxicity) (neutrophils): 19,5%
